Reference: PMC10023787, “Trio-pharmacophore DNA-encoded chemical library for simultaneous selection of fragments and linkers” (Nature Communications, 2023)
Read-outs that look alike come from different tables or passages of the source. One block for each compound: values may come before it.

Molecular target: T1, MMP-9 (Homo sapiens, UniProt P14780)
T1 construct: purchased Sino Biological 10327-HNAH
Assay: MMP-9 inhibition assay (fluorogenic peptide substrate)
Assay type: biochemical
Conditions: for IC50: mean ± SE, n.d: not detected, Fig. 5e prints no unit, µM, read-out: IC50; for inhibitory effect: in words
How it was run: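 Human proMMP-2 and proMMP-9 were activated with 1 mM APMA for 2 h at 37 °C, then used at 6.5 nM (MMP-2) or 10 nM (MMP-9) final in Tris/NaCl/CaCl2/Brij 35 buffer, pH 7.5. After 30 min preincubation with compound at RT, 25 μM FRET peptide substrate was added and fluorescence (ex 280/em 360 nm) followed for 30 min. IC50 came from logistic fits of Vmax.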

[1] = read-out: Mean (MMP-9, Supplementary fig 16)
[2] = read-out: Mean (MMP-9 dose-response, Supplementary fig 15)
[3] = read-out: Mean (dose-response, Supplementary fig 17)
[4] = read-out: Normalized activity (Mean)

T1 sequence (P14780 107-707 limits assumed): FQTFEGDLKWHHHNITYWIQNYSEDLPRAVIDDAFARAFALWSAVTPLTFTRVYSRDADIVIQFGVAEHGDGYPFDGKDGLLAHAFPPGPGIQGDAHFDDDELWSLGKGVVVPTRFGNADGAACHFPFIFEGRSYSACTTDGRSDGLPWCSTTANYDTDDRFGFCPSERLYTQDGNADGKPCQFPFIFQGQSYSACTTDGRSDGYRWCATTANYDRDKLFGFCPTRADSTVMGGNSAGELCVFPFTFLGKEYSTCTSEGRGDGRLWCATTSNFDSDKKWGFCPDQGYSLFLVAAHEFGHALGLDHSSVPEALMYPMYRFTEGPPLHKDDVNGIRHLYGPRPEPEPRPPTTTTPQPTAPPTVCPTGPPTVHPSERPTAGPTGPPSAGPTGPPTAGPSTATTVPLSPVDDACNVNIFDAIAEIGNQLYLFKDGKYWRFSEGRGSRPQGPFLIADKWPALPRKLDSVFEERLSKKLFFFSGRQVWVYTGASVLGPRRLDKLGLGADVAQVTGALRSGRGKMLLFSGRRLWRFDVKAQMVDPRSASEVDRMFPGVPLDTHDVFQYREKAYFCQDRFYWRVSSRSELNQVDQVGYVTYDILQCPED

remaining activity at 0.062464 µM (Figure 5b, fragment concentration 0.062464 µM, read-out: Normalized activity (Mean)): 93.2%
remaining activity at 0.31232 µM (Figure 5b, fragment concentration 0.31232 µM, read-out: Normalized activity (Mean)): 98.5%
remaining activity at 1.5616 µM (Figure 5b, fragment concentration 1.5616 µM, read-out: Normalized activity (Mean)): 93.8%
remaining activity at 7.808 µM (Figure 5b, fragment concentration 7.808 µM, read-out: Normalized activity (Mean)): 101%
remaining activity at 39.04 µM (Figure 5b, fragment concentration 39.04 µM, read-out: Normalized activity (Mean)): 52.9%
remaining activity at 195.2 µM (Figure 5b, fragment concentration 195.2 µM, read-out: Normalized activity (Mean)): 20%
remaining activity at 976 µM (Figure 5b, fragment concentration 976 µM, read-out: Normalized activity (Mean)): 0%
remaining activity at 0.06 µM (MMP-9, concentration 0.06 µM, read-out: Mean (MMP-9, Supplementary fig 16)): 93.2%
remaining activity at 0.31 µM (MMP-9, concentration 0.31 µM, read-out: Mean (MMP-9, Supplementary fig 16)): 98.5%
remaining activity at 1.56 µM (MMP-9, concentration 1.56 µM, read-out: Mean (MMP-9, Supplementary fig 16)): 93.8%
remaining activity at 7.81 µM (MMP-9, concentration 7.81 µM, read-out: Mean (MMP-9, Supplementary fig 16)): 101%
remaining activity at 39.04 µM (MMP-9, concentration 39.04 µM, read-out: Mean (MMP-9, Supplementary fig 16)): 52.9%
remaining activity at 195.2 µM (MMP-9, concentration 195.20 µM, read-out: Mean (MMP-9, Supplementary fig 16)): 21%
remaining activity at 976 µM (MMP-9, concentration 976.00 µM, read-out: Mean (MMP-9, Supplementary fig 16)): 0%
IC50: 48.1 µM
SMILES: O=C(O)Cn1cnc2c(oc3ccccc32)c1=O [Compound 182]

SMILES: O=C(O)c1cncc(O)c1 [Compound 828]
inhibitory effect: high µM range
IC50: 271 ± 12.4 µM
remaining activity at 0.08 µM [1]: 98.6%
remaining activity at 0.39 µM [1]: 97.4%
remaining activity at 1.95 µM [1]: 84.3%
remaining activity at 9.75 µM [1]: 88.7%
remaining activity at 48.76 µM [1]: 80.3%
remaining activity at 243.8 µM [1]: 54.4%
remaining activity at 1219 µM [1]: 0%
remaining activity at 0.08 µM [2]: 98.6%
remaining activity at 0.39 µM [2]: 97.4%
remaining activity at 1.95 µM [2]: 84.3%
remaining activity at 9.75 µM [2]: 88.7%
remaining activity at 48.76 µM [2]: 80.3%
remaining activity at 243.8 µM [2]: 54.4%
remaining activity at 1219 µM [2]: 0%
remaining activity at 0.08 µM [3]: 98.6%
remaining activity at 0.39 µM [3]: 97.4%
remaining activity at 1.95 µM [3]: 84.3%
remaining activity at 9.75 µM [3]: 88.7%
remaining activity at 48.76 µM [3]: 80.3%
remaining activity at 243.8 µM [3]: 54.4%
remaining activity at 1219 µM [3]: 0%
remaining activity at 0.078016 µM [4]: 98.6%
remaining activity at 0.39008 µM [4]: 97.4%
remaining activity at 1.9504 µM [4]: 84.3%
remaining activity at 9.752 µM [4]: 88.7%
remaining activity at 48.76 µM [4]: 80.3%
remaining activity at 243.8 µM [4]: 54.4%
remaining activity at 1219 µM [4]: 0%

remaining activity at 0.078016 µM (Figure 5b, fragment concentration 0.078016 µM, read-out: Normalized activity (Mean)): 99.9%
remaining activity at 0.39008 µM (Figure 5b, fragment concentration 0.39008 µM, read-out: Normalized activity (Mean)): 97%
remaining activity at 1.9504 µM (Figure 5b, fragment concentration 1.9504 µM, read-out: Normalized activity (Mean)): 89.6%
remaining activity at 9.752 µM (Figure 5b, fragment concentration 9.752 µM, read-out: Normalized activity (Mean)): 87.1%
remaining activity at 48.76 µM (Figure 5b, fragment concentration 48.76 µM, read-out: Normalized activity (Mean)): 91%
remaining activity at 243.8 µM (Figure 5b, fragment concentration 243.8 µM, read-out: Normalized activity (Mean)): 37.1%
remaining activity at 1219 µM (Figure 5b, fragment concentration 1219 µM, read-out: Normalized activity (Mean)): 6.67%
remaining activity at 0.08 µM (MMP-9, concentration 0.08 µM, read-out: Mean (MMP-9 dose-response, Supplementary fig 15)): 99.9%
remaining activity at 0.39 µM (MMP-9, concentration 0.39 µM, read-out: Mean (MMP-9 dose-response, Supplementary fig 15)): 97%
remaining activity at 1.95 µM (MMP-9, concentration 1.95 µM, read-out: Mean (MMP-9 dose-response, Supplementary fig 15)): 89.5%
remaining activity at 9.75 µM (MMP-9, concentration 9.75 µM, read-out: Mean (MMP-9 dose-response, Supplementary fig 15)): 87.1%
remaining activity at 48.76 µM (MMP-9, concentration 48.76 µM, read-out: Mean (MMP-9 dose-response, Supplementary fig 15)): 91%
remaining activity at 243.8 µM (MMP-9, concentration 243.80 µM, read-out: Mean (MMP-9 dose-response, Supplementary fig 15)): 37.1%
remaining activity at 1219 µM (MMP-9, concentration 1219.00 µM, read-out: Mean (MMP-9 dose-response, Supplementary fig 15)): 6.67%
inhibitory effect: high µM range
IC50: 206 ± 25.4 µM
SMILES: Cc1cc(=O)[nH]c(-n2nc(C)c(CCC(=O)O)c2C)n1 [Compound 693]
